From ChEMBL document CHEMBL5143585, “Discovery and characterization of benzyloxy piperidine based dopamine 4 receptor antagonists” (Bioorg Med Chem Lett, 2022)

System: not listed separately
Experiment: Ratio of drug level in rat brain to plasma at 0.25 mg/kg, iv measured on day 2 at 0.25 hrs post-dose
Type: ADME, organism-based
Conditions: time 2 day, read-out: BPR

Kp at 48 h | SMILES
6.6 | Fc1ccc(COC2CCN(Cc3cn4ccccc4n3)CC2)cc1F
15.5 | Fc1cc(COC2CCN(Cc3cn4ccccc4n3)CC2)ccc1Cl

System: not listed separately
Experiment: Half-life in rat at 0.25 mg/kg, iv measured for 24 hrs
Type: ADME, organism-based
Conditions: in vivo

t1/2 [min] | SMILES
54 | Fc1ccc(COC2CCN(Cc3cn4ccccc4n3)CC2)cc1F
36 | Fc1cc(COC2CCN(Cc3cn4ccccc4n3)CC2)ccc1Cl

Target: T1, D(1A) dopamine receptor (Homo sapiens, UniProt P21728)
Experiment: Displacement of [3H]-SCH23390 from human D1 receptor expressed in HEK293 cell membrane by competitive inhibition based analysis
Type: cell membranes
Conditions: not given

T1 sequence (P21728 whole entry): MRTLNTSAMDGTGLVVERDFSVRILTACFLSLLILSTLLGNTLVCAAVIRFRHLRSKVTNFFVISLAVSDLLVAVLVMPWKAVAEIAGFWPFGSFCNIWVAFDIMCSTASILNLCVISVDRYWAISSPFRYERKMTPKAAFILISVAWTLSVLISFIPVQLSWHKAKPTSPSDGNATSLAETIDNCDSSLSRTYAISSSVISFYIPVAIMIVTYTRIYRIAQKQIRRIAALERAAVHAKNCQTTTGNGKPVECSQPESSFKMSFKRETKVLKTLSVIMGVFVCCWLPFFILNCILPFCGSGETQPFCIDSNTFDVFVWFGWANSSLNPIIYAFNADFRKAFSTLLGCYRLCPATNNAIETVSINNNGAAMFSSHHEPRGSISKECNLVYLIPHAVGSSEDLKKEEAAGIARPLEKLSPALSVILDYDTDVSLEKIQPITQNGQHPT

Ki [nM] | SMILES
1190 | FC(F)(F)c1cccc(COC2CCN(Cc3cc4ccc(Cl)cc4[nH]3)CC2)c1

System: not listed separately
Experiment: Plasma concentration in rat at 0.25 mg/kg, iv measured on day 2 at 0.25 hrs post-dose
Type: ADME, organism-based
Conditions: time 2 day

concentration at 48 h [ng/mL] | SMILES
34.9 | Fc1ccc(COC2CCN(Cc3cn4ccccc4n3)CC2)cc1F
29.9 | Fc1cc(COC2CCN(Cc3cn4ccccc4n3)CC2)ccc1Cl

System: not listed separately
Experiment: Initial plasma concentration in rat at 0.25 mg/kg, iv
Type: ADME, organism-based
Conditions: in vivo, iv, 0.25 mg/kg

C0 [ng/mL] | SMILES
49.4 | Fc1ccc(COC2CCN(Cc3cn4ccccc4n3)CC2)cc1F
52.2 | Fc1cc(COC2CCN(Cc3cn4ccccc4n3)CC2)ccc1Cl

System: not listed separately
Experiment: Drug uptake in rat brain at 0.25 mg/kg, iv measured on day 2 at 0.25 hrs post-dose
Type: ADME, organism-based
Conditions: time 2 day, read-out: Drug uptake

concentration at 48 h [ng/g] | SMILES
232 | Fc1ccc(COC2CCN(Cc3cn4ccccc4n3)CC2)cc1F
453 | Fc1cc(COC2CCN(Cc3cn4ccccc4n3)CC2)ccc1Cl

Target: T2, D(4) dopamine receptor (Homo sapiens) (UniProt P21917)
T2 sequence (whole entry): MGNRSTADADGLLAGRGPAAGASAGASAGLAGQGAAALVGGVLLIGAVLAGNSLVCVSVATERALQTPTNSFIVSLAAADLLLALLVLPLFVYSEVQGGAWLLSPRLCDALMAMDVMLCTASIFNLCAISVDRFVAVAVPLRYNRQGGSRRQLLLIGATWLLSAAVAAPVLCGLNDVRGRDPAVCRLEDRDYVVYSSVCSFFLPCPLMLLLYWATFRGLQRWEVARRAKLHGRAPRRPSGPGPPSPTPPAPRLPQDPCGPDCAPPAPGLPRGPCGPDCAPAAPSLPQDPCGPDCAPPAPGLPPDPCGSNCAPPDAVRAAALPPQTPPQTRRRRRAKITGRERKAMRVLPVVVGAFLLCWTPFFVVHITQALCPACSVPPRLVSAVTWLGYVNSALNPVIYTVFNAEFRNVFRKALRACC
Experiment: Displacement of [3H]N-methylspiperone from human D4 receptor expressed in HEK293 cell membrane at 10 uM by competitive inhibition based analysis
Type: cell membranes
Conditions: not given

inhibition [%] | SMILES
-10 | Fc1cccc(CO[C@H]2CCCN(c3ccc(Cl)cc3)C2)c1
18.9 | Cc1cccc(CO[C@H]2CCCN(Cc3ncc4ccccn34)C2)n1
4.7 | Cc1cc(CO[C@H]2CCCN(c3ccc(Cl)cc3)C2)ccc1F

System: not listed separately
Experiment: Protein binding in mouse plasma assessed as unbound fraction
Type: ADME, cell-free
Conditions: not given

Fu [%] | SMILES
0.1 | FC(F)(F)c1cccc(COC2CCN(Cc3cc4ccc(Cl)cc4[nH]3)CC2)c1
42.8 | Fc1ccc(COC2CCN(Cc3cn4ccccc4n3)CC2)cc1F
22.4 | Fc1cc(COC2CCN(Cc3cn4ccccc4n3)CC2)ccc1Cl

System: not listed separately
Experiment: Volume of distribution at steady state in rat at 0.25 mg/kg, iv measured for 24 hrs
Type: ADME, organism-based
Conditions: in vivo

Vdss [L/kg] | SMILES
6.4 | Fc1ccc(COC2CCN(Cc3cn4ccccc4n3)CC2)cc1F
5.1 | Fc1cc(COC2CCN(Cc3cn4ccccc4n3)CC2)ccc1Cl

System: not listed separately
Experiment: AUC in rat at 0.25 mg/kg, iv measured for 24 hrs
Type: ADME, organism-based
Design: time 24 hrs, dose 0.25 mg/kg, route iv
Conditions: in vivo

AUC [ng·h/mL] | SMILES
142 | Fc1ccc(COC2CCN(Cc3cn4ccccc4n3)CC2)cc1F
125 | Fc1cc(COC2CCN(Cc3cn4ccccc4n3)CC2)ccc1Cl

Target: T3, D(1B) dopamine receptor (Homo sapiens, UniProt P21918)
Experiment: Displacement of [3H]-SCH23390 from human D5 receptor expressed in HEK293 cell membrane by competitive inhibition based analysis
Type: cell membranes
Conditions: not given

T3 sequence (P21918 whole entry): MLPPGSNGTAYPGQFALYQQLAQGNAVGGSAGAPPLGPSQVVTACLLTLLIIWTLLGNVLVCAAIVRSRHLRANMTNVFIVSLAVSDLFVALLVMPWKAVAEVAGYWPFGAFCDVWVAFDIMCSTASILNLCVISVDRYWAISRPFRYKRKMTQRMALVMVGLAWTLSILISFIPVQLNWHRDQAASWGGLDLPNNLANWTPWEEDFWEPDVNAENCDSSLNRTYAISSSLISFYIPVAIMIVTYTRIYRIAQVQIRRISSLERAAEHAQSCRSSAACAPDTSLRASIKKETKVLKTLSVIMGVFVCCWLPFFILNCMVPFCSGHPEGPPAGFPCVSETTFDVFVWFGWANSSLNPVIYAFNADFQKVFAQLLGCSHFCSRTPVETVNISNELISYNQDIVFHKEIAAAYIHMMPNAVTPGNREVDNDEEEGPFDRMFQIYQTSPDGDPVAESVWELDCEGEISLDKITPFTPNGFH

Ki [nM] | SMILES
> 10000 | Cc1cc(CO[C@H]2CCCN(c3ccc(Cl)cc3)C2)ccc1F
> 10000 | Fc1cc(COC2CCN(Cc3cn4ccccc4n3)CC2)ccc1Cl

Target: T4, D(3) dopamine receptor (Homo sapiens, UniProt P35462)
Experiment: Displacement of [3H]N-methylspiperone from human D3 receptor expressed in HEK293 cell membrane by competitive inhibition based analysis
Type: cell membranes
Conditions: not given

T4 sequence (P35462 whole entry): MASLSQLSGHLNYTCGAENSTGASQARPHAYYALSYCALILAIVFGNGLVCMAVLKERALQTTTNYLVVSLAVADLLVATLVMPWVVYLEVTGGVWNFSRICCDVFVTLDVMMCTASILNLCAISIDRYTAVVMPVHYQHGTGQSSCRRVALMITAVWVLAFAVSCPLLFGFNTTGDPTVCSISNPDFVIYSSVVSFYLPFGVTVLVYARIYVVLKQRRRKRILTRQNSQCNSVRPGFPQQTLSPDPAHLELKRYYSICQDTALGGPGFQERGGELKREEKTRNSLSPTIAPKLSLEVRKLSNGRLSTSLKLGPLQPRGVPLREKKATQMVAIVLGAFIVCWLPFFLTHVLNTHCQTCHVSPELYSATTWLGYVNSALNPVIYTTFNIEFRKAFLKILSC

Ki [nM] | SMILES
> 10000 | Fc1cccc(CO[C@H]2CCCN(c3ccc(Cl)cc3)C2)c1

Target: T5, D(4) dopamine receptor (Homo sapiens, UniProt P21917)
T5 sequence (P21917 whole entry): T2 sequence (whole entry)
Experiment: Displacement of [3H]N-methylspiperone from human D4 receptor expressed in HEK293 cell membrane by competitive inhibition based analysis
Type: cell membranes
Conditions: not given

IC50 [nM] | Ki [nM] | SMILES
209 | 211 | FC(F)(F)c1cccc(COC2CCN(Cc3cc4ccc(Cl)cc4[nH]3)CC2)c1
339 | 337 | Fc1ccc(COC2CCN(Cc3cn4ccccc4n3)CC2)cc1F
135 | 134 | Fc1cc(COC2CCN(Cc3cn4ccccc4n3)CC2)ccc1Cl

Target: T3, D(1B) dopamine receptor
Experiment: Displacement of [3H]-SCH23390 from human D5 receptor expressed in HEK293 cell membrane at 10 uM by competitive inhibition based analysis
Type: cell membranes
Conditions: not given

inhibition [%] | SMILES
< 50 | Fc1cccc(CO[C@H]2CCCN(c3ccc(Cl)cc3)C2)c1
< 50 | Cc1cccc(CO[C@H]2CCCN(Cc3ncc4ccccn34)C2)n1
< 50 | FC(F)(F)c1cccc(COC2CCN(Cc3cc4ccc(Cl)cc4[nH]3)CC2)c1
< 50 | Fc1ccc(COC2CCN(Cc3cn4ccccc4n3)CC2)cc1F

Same assay, conditions: filed as antagonist

inhibition [%] | SMILES
66 | Cc1cc(CO[C@H]2CCCN(c3ccc(Cl)cc3)C2)ccc1F
57 | Fc1cc(COC2CCN(Cc3cn4ccccc4n3)CC2)ccc1Cl

Target: T1, D(1A) dopamine receptor
Experiment: Displacement of [3H]-SCH23390 from human D1 receptor expressed in HEK293 cell membrane at 10 uM by competitive inhibition based analysis
Type: cell membranes
Conditions: not given

inhibition [%] | SMILES
< 50 | Fc1cccc(CO[C@H]2CCCN(c3ccc(Cl)cc3)C2)c1
< 50 | Cc1cccc(CO[C@H]2CCCN(Cc3ncc4ccccn34)C2)n1
< 50 | Cc1cc(CO[C@H]2CCCN(c3ccc(Cl)cc3)C2)ccc1F
< 50 | Fc1ccc(COC2CCN(Cc3cn4ccccc4n3)CC2)cc1F
< 50 | Fc1cc(COC2CCN(Cc3cn4ccccc4n3)CC2)ccc1Cl

Same assay, conditions: filed as antagonist

inhibition [%] | SMILES
55 | FC(F)(F)c1cccc(COC2CCN(Cc3cc4ccc(Cl)cc4[nH]3)CC2)c1

System: not listed separately
Experiment: Protein binding in human plasma assessed as unbound fraction
Type: ADME, cell-free
Conditions: not given

Fu [%] | SMILES
0.1 | FC(F)(F)c1cccc(COC2CCN(Cc3cc4ccc(Cl)cc4[nH]3)CC2)c1
6.2 | Fc1ccc(COC2CCN(Cc3cn4ccccc4n3)CC2)cc1F
1.8 | Fc1cc(COC2CCN(Cc3cn4ccccc4n3)CC2)ccc1Cl

Target: T4, D(3) dopamine receptor
Experiment: Displacement of [3H]N-methylspiperone from human D3 receptor expressed in HEK293 cell membrane at 10 uM by competitive inhibition based analysis
Type: cell membranes
Conditions: not given

inhibition [%] | SMILES
< 50 | Cc1cccc(CO[C@H]2CCCN(Cc3ncc4ccccn34)C2)n1
< 50 | Cc1cc(CO[C@H]2CCCN(c3ccc(Cl)cc3)C2)ccc1F
< 50 | FC(F)(F)c1cccc(COC2CCN(Cc3cc4ccc(Cl)cc4[nH]3)CC2)c1
< 50 | Fc1ccc(COC2CCN(Cc3cn4ccccc4n3)CC2)cc1F
< 50 | Fc1cc(COC2CCN(Cc3cn4ccccc4n3)CC2)ccc1Cl

Same assay, conditions: filed as antagonist

inhibition [%] | SMILES
71 | Fc1cccc(CO[C@H]2CCCN(c3ccc(Cl)cc3)C2)c1

Target: D(2) dopamine receptor (Homo sapiens) (UniProt P14416)
Experiment: Displacement of [3H]N-methylspiperone from human D2 receptor expressed in HEK293 cell membrane at 10 uM by competitive inhibition based analysis
Type: cell membranes
Conditions: not given

Chain of D(2) dopamine receptor (Homo sapiens) (P14416 whole entry): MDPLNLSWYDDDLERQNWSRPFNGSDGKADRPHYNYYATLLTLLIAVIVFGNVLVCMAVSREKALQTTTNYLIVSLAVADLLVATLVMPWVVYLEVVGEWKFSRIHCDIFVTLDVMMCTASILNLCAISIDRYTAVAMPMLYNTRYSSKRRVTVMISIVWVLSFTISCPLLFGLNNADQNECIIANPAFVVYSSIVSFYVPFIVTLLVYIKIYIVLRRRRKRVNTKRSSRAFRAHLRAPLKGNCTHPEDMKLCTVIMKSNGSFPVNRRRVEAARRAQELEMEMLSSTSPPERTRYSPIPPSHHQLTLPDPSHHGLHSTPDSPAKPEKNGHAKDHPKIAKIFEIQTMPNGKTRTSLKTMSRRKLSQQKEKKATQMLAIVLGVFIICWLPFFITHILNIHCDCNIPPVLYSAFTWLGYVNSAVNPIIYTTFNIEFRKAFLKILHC

inhibition [%] | SMILES
< 50 | Fc1cccc(CO[C@H]2CCCN(c3ccc(Cl)cc3)C2)c1
< 50 | Cc1cccc(CO[C@H]2CCCN(Cc3ncc4ccccn34)C2)n1
< 50 | Cc1cc(CO[C@H]2CCCN(c3ccc(Cl)cc3)C2)ccc1F
< 50 | FC(F)(F)c1cccc(COC2CCN(Cc3cc4ccc(Cl)cc4[nH]3)CC2)c1
< 50 | Fc1ccc(COC2CCN(Cc3cn4ccccc4n3)CC2)cc1F
< 50 | Fc1cc(COC2CCN(Cc3cn4ccccc4n3)CC2)ccc1Cl
